From patent publication US11744830B2, “Ameliorative agent for cytokine release syndrome and so on” (TORII PHARMACEUTICAL CO., LTD., priority 2018, dated 2023)
pIC50: −log10 of the molar value. Counter-ions that a name gives are not always drawn.

Legend:
[1] = test system: IFN-γ production from PBMCs; assay: T-cell stimulation bead- and LPS stimulation-induced CRS toxicity evaluation system in PBMCs: IFN-γ; type: cell-based, human; conditions: for pIC50: Homo sapiens, PBMC, 72 h, PBMCs, CD3/CD28 + LPS, 3 days
Method: Cryopreserved PBMCs were quickly thawed in a 37° C. thermostat and added to a tube containing medium. After centrifugation (at room temperature at 300 g for 10 minutes) to remove the supernatant, the cells were suspended again in the medium (10 mL), followed by counting the number of viable cells. After centrifugation (at room temperature at 300 g for 10 minutes) to remove the supernatant, the medium was added to suspend the cells at 1×10^6 cells/mL. This cell suspension was seeded in a 96-well plate in a volume of 100 μl/well (1×10^5 cells/well) and allowed to stand in a CO2 incubator for 1 to 2 hours.
The cells were cultured in a CO2 incubator for 3 days to collect the culture supernatants.
The collected culture supernatants were quantified for IFN-γ and IL-6 using Human IFN-γ DuoSet ELISA and Human IL-6 DuoSet ELISA.

[2] = test system: VEGF production from macrophages; assay: LPS stimulation-induced VEGF production in macrophages; type: cell-based, human
Method: CD14^+ cells were cultured in 20 ng/mL M-CSF-containing RPMI medium at 37° C. for 5 days to induce differentiation into macrophages (during which the medium was replaced once every two days with fresh 20 ng/mL M-CSF-containing RPMI medium). […] The macrophages were then stimulated with LPS (final concentration: 100 ng/mL) or RPMI medium alone at 37° C. for 3 days, followed by collecting the culture supernatants. The collected culture supernatants were quantified for VEGF using Human VEGF DuoSet ELISA.

[3] = test system: IL-6, IL-8 and other inflammatory cytokines; conditions: phase I study, LPS loading; cited from earlier work
[4] = test system: acute myeloid leukemia (AML) cell lines; conditions: in vitro system; cited from earlier work

Row | SMILES | pIC50 [1] | pIC50 ([2]; Homo sapiens, Macrophage, 72 h, read-out: IC50 value, VEGF) | effect on VEGF production from macrophages ([2]; Macrophages, LPS) | elevation of C-reactive protein (CRP) levels [3] | production of IL-6, IL-8 and other inflammatory cytokines [3] | autoproliferation of AML cell lines [4] | suppression of IFN-γ production versus IL-6 production ([1]; PBMCs co-stimulated with T-cell stimulation beads and LPS)
1 | CCOC(=O)[C@H](Cc1ccccc1)NC(=O)c1cc(Cl)c(OCCN2CCN(C)CC2)c(Cl)c1O [JTE-607, (−)-ethyl N-{3,5-dichloro-2-hydroxy-4-[2-(4-methylpiperazin-1-yl)ethoxy]benzoyl}-L-phenylalaninate dihydrochloride] | 7.30 | 6.69 | tended to suppress VEGF production from macrophages, but its effect was marginal | suppress the elevation of C-reactive protein (CRP) levels in a dose-dependent manner | suppress the production of IL-6, IL-8 and other inflammatory cytokines | selectively suppress the autoproliferation | –
2 | C[C@]12C=CC(=O)C=C1CC[C@@H]1[C@@H]2[C@@H](O)C[C@@]2(C)[C@H]1CC[C@]2(O)C(=O)CO [PSL, Prednisolone] | 7.28 | – | – | – | – | – | more strongly suppressed IFN-γ production than IL-6 production
